Data reported in patent US4254124A, “Antidepressant agent” (priority 1979, dated 1981).

How the values were obtained:
mouse [1] = assay: Reduction of phenylquinone writhing in mice (analgetic); assay type: in vivo; conditions: oral
Description: Reduction of phenylquinone writhing
^2 Hendershot, et al., J. Pharmacol. & Exptl. Ther. 125, 237 (1959).

dog = assay: carotid arterial blood pressure in pentobarbital anesthetized dog; assay type: in vivo; conditions: 1 and 10 mg./kg. intravenously
mouse [2] = assay: spontaneous motor activity; assay type: in vivo
Description: More particularly, in the measurement of spontaneous motor activity in the mouse using the device and method described by Kissel in U.S. Pat. No. 3,100,473 patented Aug.

[3] = ALD50/ATD50 Mouse (lethal toxicity and first signs of pharmacologic activity); conditions: mouse, in vivo, po
Description: (§1) ^4 Groups of 10 mice treated variously with geometrically increasing
(§2) doses of test compound with observations of lethal toxicity (ALD50)
(§3) and for first signs of pharmacologic activity (ATD50).

mouse [4] = assay: as above
Description: as §1, §2, §3

[5] = animal tests, propensity for adverse reactions (general statement); assay type: in vivo; conditions: central nervous system depression, hypotensive action, and others; vs trazodone
Protocol: More particularly, in the measurement of spontaneous motor activity in the mouse using the device and method described by Kissel in U.S. Pat. No. 3,100,473 patented Aug. […] In contrast, trazodone at a dose of 15.3 mg./kg. caused a 30% reduction in spontaneous motor activity. […] Other animal test results in which MJ 12762 has been compared to trazodone are arranged in the following table.

[6] = animal tests, antidepressant activity (general statement); assay type: in vivo
mouse [7] = assay: reserpine-induced ptosis prevention (oral pretreatment); assay type: in vivo; conditions: for ED50: Mus musculus, po, p.o. before reserpine 2.0 mg./kg. i.v., prevention in 50% of the animals
mouse [8] = assay: Inhibition of pernicious preening in mice (anti-psychotic or analgetic); assay type: in vivo; conditions: oral
Description: mice (anti-psychotic or analgetic)^3

mouse [9] = assay: Mouse, tail clip (analgetic); assay type: in vivo; conditions: oral
Description: Mouse, tail clip (analgetic)^1
^1 Bianchi, et al., Brit. J. of Pharmacology 9, 280 (1954).

alpha-adrenergic = assay: blood pressure response to 1-epinephrine (alpha-adrenergic blocking action), anesthetized dog; assay type: in vivo
in vivo = conditions: mouse, po
Description: as §1, §2, §3

[10] = U.S. Pat. No. 3,381,009; cited from earlier work
patients = conditions: cited from earlier work
[11] = vs imipramine, Fabre et al. 1979

## O=c1n(CCCN2CCN(c3cccc(C(F)(F)F)c3)CC2)nc2ccccn12 [MJ 12762, 2-[3-[4-[3-(Trifluoromethyl)phenyl]-1-piperazinyl]propyl]-1,2,4-triazolo[4,3-a]pyridin-3(2H)-one]
Mouse [1]
  ED50: 6.1 mg/kg
dog
  effect on blood pressure: without effect on blood pressure
Mouse [2]; 20, 40 and 80 mg. per kg. orally
  effect on spontaneous motor activity: neither stimulation nor depression
[3]
  TD50: 8 to 15.7 mg/kg
Mouse [4]; mouse
  acute toxicity relative to trazodone: somewhat greater than that of trazodone
Mouse [4]; vs trazodone
  propensity for signs of overt pharmacologic activity unrelated to utility: reduced as compared to trazodone
[5]
  propensity for adverse reactions: significantly reduced propensity for adverse reactions
[6]
  antidepressant activity relative to trazodone: comparable in antidepressant activity to trazodone
Mouse [7]
  ED50: 14 mg/kg
Mouse [7]; p.o., vs trazodone
  potency relative to trazodone, reserpine ptosis: two to three times more potent than trazodone
Mouse [8]
  inhibition of pernicious preening, activity in words: Inactive
Mouse [8]; at 31 mg./kg.
  inhibition of pernicious preening, animals responding: 2 of 10
Mouse [9]
  ED50: 94 mg/kg
alpha-adrenergic; intravenous doses of 1 and 10 mg./kg.
  effect on the blood pressure response to 1-epinephrine (alpha-adrenergic blocking action): lack of alpha-adrenergic blocking action
In vivo
  LD50: 250 to 500 mg/kg

## O=c1n(CCCN2CCN(c3cccc(Cl)c3)CC2)nc2ccccn12 [trazodone, 2-[3-[4-(3-chlorophenyl)-1-piperazinyl]propyl]-1,2,4-triazolo[4,3-a]pyridin-3(2H)-one, reference compound]
dog
  effect on blood pressure: depressor response
Mouse [2]; 15.3 mg./kg.
  reduction in spontaneous motor activity: 30%
[3]
  TD50: 2 to 4 mg/kg
[10]
  pharmacological action in various animal tests: tranquilizing action, hypotensive action, and analgesic action
patients; endogenous or neurotic depression
  adverse reactions sometimes observed in patients: hypotension,fatigue, drowsiness, and nasal or sinus congestion
patients; [11]
  antidepressant effectiveness in clinical use: equivalent in effectiveness to imipramine
  side effects in clinical use: fewer side effects
Mouse [7]
  ED50: 36 mg/kg
Mouse [8]; Mus musculus
  ED50: 43 mg/kg
alpha-adrenergic; 10 mg./kg. intravenously
  effect on the blood pressure response to 1-epinephrine bitartrate (alpha-adrenergic blocking action): blocked the effect of 1-epinephrine bitartrate
